Target: T1, LRRK2 (Homo sapiens, UniProt Q5S007)
T1 construct: LRRK2-NanoLuc fusion
Assay: NanoBRET in-cell target engagement, competitive displacement of K-9 tracer in transfected HEK293 cells
Type: cell-based

T1 sequence (Q5S007 whole entry, the tested form may be a part): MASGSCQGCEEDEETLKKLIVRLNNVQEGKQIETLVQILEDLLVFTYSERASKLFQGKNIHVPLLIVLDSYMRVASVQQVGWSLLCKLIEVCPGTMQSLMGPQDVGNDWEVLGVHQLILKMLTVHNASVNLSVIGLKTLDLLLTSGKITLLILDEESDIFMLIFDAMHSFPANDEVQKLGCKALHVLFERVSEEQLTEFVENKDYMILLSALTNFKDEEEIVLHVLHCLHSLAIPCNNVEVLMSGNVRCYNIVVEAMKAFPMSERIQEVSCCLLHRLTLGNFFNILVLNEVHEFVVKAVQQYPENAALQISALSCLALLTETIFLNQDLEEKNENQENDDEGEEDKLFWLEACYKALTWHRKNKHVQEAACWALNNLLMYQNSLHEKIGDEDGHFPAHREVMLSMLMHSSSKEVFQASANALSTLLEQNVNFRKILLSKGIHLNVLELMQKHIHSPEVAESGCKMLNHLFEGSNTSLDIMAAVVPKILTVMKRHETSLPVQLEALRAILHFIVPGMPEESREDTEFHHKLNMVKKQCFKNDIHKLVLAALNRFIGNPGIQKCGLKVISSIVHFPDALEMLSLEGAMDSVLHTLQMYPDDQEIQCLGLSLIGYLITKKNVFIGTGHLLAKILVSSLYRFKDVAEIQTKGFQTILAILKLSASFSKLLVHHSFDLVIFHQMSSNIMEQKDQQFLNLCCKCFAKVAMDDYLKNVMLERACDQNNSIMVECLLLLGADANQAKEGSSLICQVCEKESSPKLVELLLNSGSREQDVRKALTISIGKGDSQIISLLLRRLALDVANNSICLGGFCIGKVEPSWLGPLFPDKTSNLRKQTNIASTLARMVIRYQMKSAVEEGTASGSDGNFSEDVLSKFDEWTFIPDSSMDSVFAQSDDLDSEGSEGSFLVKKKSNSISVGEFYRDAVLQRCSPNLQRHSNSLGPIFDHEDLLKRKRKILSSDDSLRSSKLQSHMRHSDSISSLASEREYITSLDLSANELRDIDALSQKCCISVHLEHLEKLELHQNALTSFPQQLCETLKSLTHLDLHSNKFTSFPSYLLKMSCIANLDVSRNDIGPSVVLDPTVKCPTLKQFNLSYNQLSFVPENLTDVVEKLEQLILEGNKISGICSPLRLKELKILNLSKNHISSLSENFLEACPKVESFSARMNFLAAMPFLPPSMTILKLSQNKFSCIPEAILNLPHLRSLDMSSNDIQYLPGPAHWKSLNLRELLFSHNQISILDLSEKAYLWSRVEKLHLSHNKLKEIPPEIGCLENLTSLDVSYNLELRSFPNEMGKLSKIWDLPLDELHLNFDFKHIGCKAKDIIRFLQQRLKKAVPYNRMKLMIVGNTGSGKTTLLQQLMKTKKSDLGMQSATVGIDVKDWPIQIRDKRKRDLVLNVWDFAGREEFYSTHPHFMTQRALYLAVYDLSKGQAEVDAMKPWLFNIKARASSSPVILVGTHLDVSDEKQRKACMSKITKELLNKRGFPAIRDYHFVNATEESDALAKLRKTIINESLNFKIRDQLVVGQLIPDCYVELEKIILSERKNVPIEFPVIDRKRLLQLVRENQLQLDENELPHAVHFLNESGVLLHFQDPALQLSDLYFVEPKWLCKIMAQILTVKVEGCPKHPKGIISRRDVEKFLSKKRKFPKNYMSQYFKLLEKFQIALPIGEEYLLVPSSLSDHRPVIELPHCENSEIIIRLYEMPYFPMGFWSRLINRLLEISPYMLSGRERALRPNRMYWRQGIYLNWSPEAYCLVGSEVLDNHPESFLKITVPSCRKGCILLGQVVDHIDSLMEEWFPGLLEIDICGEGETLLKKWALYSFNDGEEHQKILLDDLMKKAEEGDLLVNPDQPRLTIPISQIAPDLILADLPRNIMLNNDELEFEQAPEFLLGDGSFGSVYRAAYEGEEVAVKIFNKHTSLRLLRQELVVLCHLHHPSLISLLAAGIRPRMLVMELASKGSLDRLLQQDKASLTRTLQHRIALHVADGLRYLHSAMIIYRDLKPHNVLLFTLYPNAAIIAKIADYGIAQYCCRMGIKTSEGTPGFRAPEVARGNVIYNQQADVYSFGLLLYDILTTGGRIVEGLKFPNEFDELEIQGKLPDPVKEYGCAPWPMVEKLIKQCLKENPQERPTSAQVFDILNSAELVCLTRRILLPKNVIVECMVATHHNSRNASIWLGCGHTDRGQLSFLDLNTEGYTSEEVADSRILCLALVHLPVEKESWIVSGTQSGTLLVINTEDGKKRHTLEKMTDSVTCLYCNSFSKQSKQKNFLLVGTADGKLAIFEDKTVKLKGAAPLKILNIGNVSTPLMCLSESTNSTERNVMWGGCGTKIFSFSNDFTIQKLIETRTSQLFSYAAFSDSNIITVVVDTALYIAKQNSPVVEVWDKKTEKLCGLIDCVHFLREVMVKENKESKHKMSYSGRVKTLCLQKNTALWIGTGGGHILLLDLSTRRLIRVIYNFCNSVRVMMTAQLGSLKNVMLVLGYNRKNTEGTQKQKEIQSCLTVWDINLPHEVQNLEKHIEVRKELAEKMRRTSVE

OSU13 showed an EC50 of 216 nM.

From article PMC11383830, “TTK inhibitor OSU13 promotes immunotherapy responses by activating tumor STING” (JCI Insight, 2024)
